Earlier results as cited in US20030144259A1, “Breast cancer hormonal therapy” (priority 2000, published 2003).

Conditions: human, in vivo; cited from earlier work

Structure (SMILES): CCC1(c2ccc(N)cc2)CCC(=O)NC1=O (stereo not shown) [aminoglutethimide]
- dizziness: 15%
- lethargy: 36%
- nausea and vomiting: 10%
- patients requiring discontinuation of drug: about 5%
- patients with side effects: about 35%
- severe myelosuppression: less than 1%
- transient maculopapular rash: 25%
